Results as given in patent US5336485A, “Method for protecting animals against tacrine induced cytotoxic injury using sterol compounds” (priority 1993, dated 1994).
Counter-ions that a name gives are not always drawn.

Tests used:
[1] = system: rat hepatocytes; test: EMS-induced cytotoxicity (LDH leakage/cell death) in rat hepatocyte suspensions; conditions: for Cell Death: 50 mM EMS, 5 Hrs, alpha-TS 25, methyl ester 50, cholesteryl succinate 100, monomethyl/dimethyl succinate 250 μM; for inhibition at 25 µM: Rattus norvegicus, Hepatocyte
Description: To determine if alpha-TS is a cytoprotective agent under physiological conditions, liver cells were incubated with Waymouth's medium containing approximately 1 mM extracellular Ca^2+ in the presence and absence of alpha-TS.
(§1) At each time-point, rapid separation of viable from non-viable hepatocytes and medium was accomplished by the dibutyl phthalate centrifugation method. Cell viability was monitored hourly by measuring LDH leakage with a Cobas Analyzer and intracellular [K^+ ]with a flame photometer. LDH was routinely measured in the medium while intracellular K^+ was measured in the 10% perchloric acid lysate of viable cells. Lipid peroxidation was determined by measuring TBA reactants in the medium. […] The samples were diluted with 0.3 ml 1% ascorbate in 0.1 M SDS, 0.4 ml ethanol, sonicated and extracted once with 0.8 ml hexane. Next, the hexane extract was evaporated to dryness with N2, the residue dissolved in 2.5% ascorbate in methanol (1 ml) and analyzed (100 μl) by high-performance liquid chromatograph (HPLC). […] The mobile phase, 95% MeOH was run isocratically and the HPLC retention times for delta and alpha-tocopherol were approximately eleven and sixteen minutes, respectively. […] Following the addition of 0.2 ml 4 M HC1, the neutralized KOH-MeOH extracted with 0.8 ml hexane. […] A standard curve for each tocopherol congener was run with every assay. […] Only viable cells were monitored in the laboratory procedures.
To determine the relative cytoprotective potency of various tocopherol derivatives, the effect of varying doses of a tocopherol analog on the protection against EMS-induced toxicity was examined in vitro on rat hepatocyte suspensions. Specifically, the following ionizable tocopherol congeners were tested: alpha-TS, alpha tocopheryl glutarate (alpha-TG), and alpha tocopheryl phosphate (alpha-TP). […] 0.1 nmoles is the lower detection limit.
In vitro experiments were conducted with a variety of different tocopherol and succinate analogs to determine which were protective against EMS induced toxicity. After five hours of incubation with 50 mM EMS and 25μM of a tocopherol or succinate analog, cytoprotection was determined by comparing the percentage of LDH leakage from control hepatocytes (vehicle only, assumed 100% protection) with the EMS only treated cells (assumed 0% protection).
An in vitro experiment with rat hepatocyte suspensions was performed to determine the effect of esterase inhibitors on alpha-TS.
(§2) Rat hepatocyte suspensions were subjected to 50 mM EMS and the percentage of cell death, the percentage of intracellular K^+ (a metabolic parameter as discussed above), the depletion of ATP and the effect on lipid peroxidation were monitored.

[2] = system: rat hepatocytes; test: EMS-induced lipid peroxidation in rat hepatocyte suspensions; assay type: cell-based; conditions: 50 mM EMS
Description: as §1, §2

[3] = system: male Sprague-Dawley rats; test: CCl4 induced lethality in rats; assay type: in vivo, rat
[4] = system: liver; test: CCl4 induced hepatotoxicity in rats (serum AST/ALT); assay type: in vivo, rat; conditions: for Serum AST Levels: listed as Cholesteryl Succinate free acid
Summary of the method: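 Male Sprague-Dawley rats received test compounds i.p. at 100 mg/kg 20–24 h before oral CCl4 (2.9 g/kg or 1 g/kg). Serum AST and ALT were measured 48 h after CCl4 challenge.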

[5] = system: CDF1 mice; test: Doxorubicin lethality in CDF1 mice (normal tissue); assay type: in vivo, mouse; conditions: 100 mg/kg ip 20 h prior, DOX 10, 15, 20, 25 mg/kg
Description: (§3) The experiments were conducted in accordance with NCI Protocol 1,100. FIGS. 8a-d show the experimental results obtained when male CDF1 mice (n=6) received either vehicle only or 100mg/kg body weight i.p. dose of either alpha-TS or cholesteryl succinate 20 hours prior to DOX administration. FIGS. 8a-d respectively show the results obtained when the mice received 10, 15, 20, and 25 mg DOX/kg body weight. […] FIGS. 9a-d show the experimental results obtained when male CDF1 mice ([…]) were injected (i.p.) with 10^6 murine L1210 leukemia cells followed immediately by an injection of alpha-TS tris salt (100 mg/kg, i.p.) or saline injection (vehicle), and twenty hours later (Day=0) each mouse in three of the groups was i.p. injected with 15, 20, or 25 mg DOX/kg body weight ([…]). Survival was monitored for twenty days.

[6] = system: liver; test: THA-induced hepatotoxicity in rats (serum AST); assay type: in vivo, rat; conditions: 100 mg/kg ip
Description: FIGS. 10 and 11 show the results of in vivo experiments where male Sprague-Dawley rats were given an oral dose of 15 or 30 mg THA/kg body weight, respectively. […] The serum AST levels were determined with respect to time after the THA challenge.

[7] = system: L1210 leukemia cells; test: Doxorubicin in L1210 leukemia bearing CDF1 mice; assay type: in vivo, mouse; conditions: DOX 10 mg/kg
Description: as §3

[8] = system: gluconeogenesis or ATP production; conditions: cited from earlier work
[9] = system: rat hepatocytes; test: Intracellular K+ of rat hepatocytes exposed to EMS; assay type: cell-based; conditions: 50 mM EMS, 5 Hrs; concentrations as cell death (Table 15)
From the text: Medzhradsky, Biochem. Med. 13:164 (1975), has noted that the cell's ability to maintain its intracellular concentration of potassium (K^+) is an excellent indicator of the metabolic integrity of the cell. A concentration gradient exists for K^+ with greater concentrations found intracellularly. To maintain this gradient, the cell is dependent on the action of the Na^+ -K^+ ATPase pump and an adequate supply of ATP. As cellular ATP levels decline, the ATPase pump is unable to maintain the gradient resulting in the loss of intracellular K^+ by equilibration with the extracellular space. Because the maintenance of cellular metabolic processes is essential to the continual repair and survival of cells, organ systems, and organisms, the effect of alpha-TS on the metabolic integrity of rat liver cells during a toxic insult was investigated by measuring intracellular K^+ levels. […] At each time-point, rapid separation of viable from non-viable hepatocytes and medium was accomplished by the dibutyl phthalate centrifugation method. Cell viability was monitored hourly by measuring LDH leakage with a Cobas Analyzer and intracellular [K^+ ]with a flame photometer. […] Lipid peroxidation was determined by measuring TBA reactants in the medium. […] Alltech, Avondale, Pa.). […] Following the addition of 0.2 ml 4 M HC1, the neutralized KOH-MeOH extracted with 0.8 ml hexane. […] A standard curve for each tocopherol congener was run with every assay. […] Only viable cells were monitored in the laboratory procedures.

[10] = system: L1210 murine leukemia cells; test: Inhibition of L1210 leukemia cell growth in vitro; assay type: cell-based, mouse
Description: Similar in vitro experiments were conducted with cholesteryl succinate tris salt and alpha-TS tris salt.

[11] = system: L1210 leukemia cells; conditions: 100 mg/kg ip
[12] = system: rat hepatocytes; test: Cellular alpha-tocopherol and tocopherol ester content of rat hepatocytes; conditions: 25 μM, Table 2
Description: as §1
The hepatocytes were subsequently exposed to 50mM EMS for three hours.

[13] = Tissue distribution of alpha-tocopherol and alpha-tocopherol ester in rats; assay type: in vivo, rat; conditions: 100 mg/kg ip, 24 h
Description: 100 mg/kg body weight of a tocopherol analog was administered to Sprague-Dawley rats using a peanut oil:ethanol vehicle (3:2). Twenty four hours later the rats were sacrificed and the accumulation of the tocopherol analog in the liver was determined.
A similar in vivo experiment to that discussed in conjunction with Table 5 was performed to determine if other tissues accumulate alpha-TS. Male Sprague-Dawley rats were given a 100 mg/kg dose of alpha-TS using a variety of chemical forms and vehicles. A variety of techniques were used to administer the alpha-TS. Twenty four hours later the rats were sacrificed and the tissues were tested for alpha-TS accumulation.

[14] = system: variety of cell types; conditions: cited from earlier work
[15] = system: liver; test: Acetaminophen-induced hepatotoxicity in rats (AST/ALT); assay type: in vivo, rat
Description: In vivo experiments were performed to determine if alpha-TS administration protects the liver from the hepatotoxic effects of acetaminophen. Acetaminophen is a commonly used analgesic that is metabolized to a reactive intermediate. […] The other group of male Sprague-Dawley rats received only the acetaminophen challenge. Forty eight hours after the challenge the rats were sacrificed and the levels of aspartate aminotransferase (AST) and alanine aminotransferase (ALT) were measured.
FIGS. 10 and 11 show the results of in vivo experiments where male Sprague-Dawley rats were given an oral dose of 15 or 30 mg THA/kg body weight, respectively. In the experiments, one group of rats was provided with an i.p. dose of 100 mg cholesteryl succinate tris salt/kg body weight 20 hours prior to the THA challenge, another group of rats only received the THA challenge, and the last group of rats acted as a control and were not challenged. The serum AST levels were determined with respect to time after the THA challenge.

[16] = 100 mg/kg, single dose 24 h prior, CCl4 […]
[17] = 100 mg/kg ip 20 h prior, 48 h after 1 g/kg CCl4 (Table 20)
[18] = 100 mg/kg ip 20 h prior, 48 h after 1 g/kg CCl4 (Table 27)
[19] = rat plasma, 100 mg/kg ip 24 h prior, 48 h after […] CCl4
[20] = 100 mg/kg ip, 48 h after 1 g/kg CCl4 (Table 33)
[21] = 100 mg/kg ip, no CCl4 (Table 20)
[22] = 100 mg/kg ip, no CCl4 (Table 33)
[23] = 100 mg/kg ip 20 hrs prior, 48 h after 2 g/kg AP (Table 23)

Structure (SMILES): CC(C)CCC[C@@H](C)[C@H]1CC[C@H]2[C@@H]3CC=C4C[C@@H](OC(=O)CCC(=O)O)CC[C@]4(C)[C@H]3CC[C@]12C [Cholesteryl Succinate]
- Cell Death [1]: 48 ± 4%
- inhibition at 25 µM ([1]; 5 h, read-out: Percent Cytoprotection): 30 ± 22%
- Lipid Peroxidation ([2]; 5 Hrs, concentrations as cell death (Table 15)): 11.3 ± 4.2 nmolMDA/10^6 cells
- Days Survived After CCl4 Treatment [3, 16]: > 7 days
- Serum AST Levels ([4]; 100 mg/kg ip 20 h prior, 24 hrs after 2 g/kg CCl4 (Table 26)): 1.84 ± 1.13 10^3 units/L
- Serum AST Levels ([4]; 100 mg/kg ip 20 h prior, 48 hrs after 2 g/kg CCl4 (Table 26)): 1.90 ± 2.64 10^3 units/L
- survival after DOX, normal mice (FIGS. 8a-d) [5]: survived significantly longer
- protection against THA hepatotoxicity (FIG. 10) ([6]; THA 15 mg/kg): protects against the hepatotoxicity resulting from THA
- protection against THA hepatotoxicity (FIG. 11) ([6]; THA 30 mg/kg): protects against the hepatotoxicity resulting from THA

Structure (SMILES): COc1cccc2c1C(=O)c1c(O)c3c(c(O)c1C2=O)C[C@@](O)(C(=O)CO)C[C@@H]3O[C@H]1C[C@H](N)[C@H](O)[C@H](C)O1 [DOX, doxorubicin, reference compound]
- survival of tumor bearing mice given DOX [7]: dramatically increased

Structure (SMILES): COC(=O)CCC(=O)O [methyl ester succinate, methyl ester of succinate]
- concentration required to stimulate gluconeogenesis or ATP production [8]: Millimolar concentrations

Structure (SMILES): COC(=O)CCC(=O)Oc1c(C)c(C)c2c(c1C)CCC(C)(CCCC(C)CCCC(C)CCCC(C)C)O2 (stereo not drawn) [methyl ester of alpha-TS, Alpha-Tocopherol Succinate Methyl Ester]
- Cell Death [1]: 30 ± 1%
- inhibition at 25 µM ([1]; 5 h, read-out: Percent Cytoprotection, 25 μM, 50 mM EMS, 5 h): 22 ± 15%
- % Initial Intracellular [K+] [9]: 67 ± 4 % Initial
- Days Survived After CCl4 Treatment [3, 16]: > 7 days

Structure (SMILES): Cc1c(C)c2c(c(C)c1OC(=O)CCC(=O)O)CC[C@@](C)(CCC[C@H](C)CCC[C@H](C)CCCC(C)C)O2 [alpha-TS tris salt, Alpha tocopheryl succinate tris salt]
- ALT [4, 17]: 0.371 ± 0.246 10^3 units/L
- AST [4, 17]: 1.86 ± 1.11 10^3 units/L
- ALT [4, 18]: 0.52 ± 0.16 10^3 units/L
- AST [4, 18]: 0.79 ± 0.26 10^3 units/L
- inhibition in vivo at 100 mg/kg ([4]; Rattus norvegicus, 100 mg/kg ip 20 h prior, 48 h after 1 g/kg CCl4, read-out: % Hepatoprotection): 80%
- growth rate of L1210 cells (FIG. 7) [10]: significantly suppress the growth rate of L1210 cells
- Survival Time [11]: 7.6 ± 0.6 days

Structure (SMILES): CC(=O)Oc1c(C)c(C)c2c(c1C)CC[C@@](C)(CCC[C@H](C)CCC[C@H](C)CCCC(C)C)O2 [alpha-TA, d-alpha-tocopherol acetate, reference compound]
- inhibition at 25 µM ([1]; read-out: % Protection, 25 μM, 50 mM EMS): 12%
- inhibition at 25 µM ([2]; Rattus norvegicus, Hepatocyte, 25 μM): 14%
- Cellular Tocopherol ester [12]: 1.7 nmoles/10^6 cells
- Cellular alpha-T [12]: 0.3 nmoles/10^6 cells
- Protection from CCl4 ([3]; 100 mg/kg ip (Table 5)): No
- Days Survived After CCl4 Treatment ([3]; 100 mg/kg ip, 24 h prior, CCl4 2.2 g/kg): > 7 days
- Days Survived After CCl4 Treatment ([3]; 100 mg/kg ip, 24 h prior, CCl4 3.8 g/kg): 2 days
- Days Survived After CCl4 Treatment ([3]; 100 mg/kg ip, 24 h prior, CCl4 5.0 g/kg): 2 days
- Days Survived After CCl4 Treatment ([3]; 100 mg/kg ip, 24 h prior, CCl4 […]): 3 days
- ALT [4, 19]: 6,108 ± 417 Units/L
- AST [4, 19]: 20,233 ± 3525 Units/L
- Liver Concentration Ester [13]: 92 ± 6 nmol/g
- protection against carcinogenic effects of radiation and cancer causing chemicals [14]: ineffective

Structure (SMILES): O=C(O)CCC(=O)O [Tris Succinate, reference compound]
- ALT [4, 17]: 3.617 ± 0.858 10^3 units/L
- AST [4, 17]: 11.22 ± 3.15 10^3 units/L
- ALT [4, 20]: 2.135 ± .881 10^3 units/L
- AST [4, 20]: 8.32 ± 2.65 10^3 units/L
- ALT [4, 21]: 0.048 ± 0.005 10^3 units/L
- AST [4, 21]: 0.11 ± 0.02 10^3 units/L
- ALT [4, 22]: 0.058 ± .001 10^3 units/L
- AST [4, 22]: 0.15 ± 5.02 10^3 units/L
- Serum ALT Level [15, 23]: 623 ± 339 Units/L
- Serum AST Level [15, 23]: 2286 ± 1190 Units/L
- Serum ALT Level ([15]; 100 mg/kg ip, no AP (Table 23)): 50 ± 7 Units/L
- Serum AST Level ([15]; 100 mg/kg ip, no AP (Table 23)): 93 ± 34 Units/L
- growth rate of L1210 cells (FIG. 7) [10]: no effect on the growth rate
